According to US20100015727A1, “METHOD FOR DETERMINING TRANSPORT ACTIVITY OF A TRANSPORT PROTEIN” (BOEHRINGER INGELHEIM INTERNATIONAL GMBH, priority 2006, published 2010):

Molecular target: T1, MRP4 (Homo sapiens, UniProt O15439)
T1 construct: infected with a baculovirus construct containing the full-length cDNA encoding MRP4; made in house; host or cells: Hi5 or Sf9 insect cells (baculovirus)
T1 sequence (O15439 1-1325): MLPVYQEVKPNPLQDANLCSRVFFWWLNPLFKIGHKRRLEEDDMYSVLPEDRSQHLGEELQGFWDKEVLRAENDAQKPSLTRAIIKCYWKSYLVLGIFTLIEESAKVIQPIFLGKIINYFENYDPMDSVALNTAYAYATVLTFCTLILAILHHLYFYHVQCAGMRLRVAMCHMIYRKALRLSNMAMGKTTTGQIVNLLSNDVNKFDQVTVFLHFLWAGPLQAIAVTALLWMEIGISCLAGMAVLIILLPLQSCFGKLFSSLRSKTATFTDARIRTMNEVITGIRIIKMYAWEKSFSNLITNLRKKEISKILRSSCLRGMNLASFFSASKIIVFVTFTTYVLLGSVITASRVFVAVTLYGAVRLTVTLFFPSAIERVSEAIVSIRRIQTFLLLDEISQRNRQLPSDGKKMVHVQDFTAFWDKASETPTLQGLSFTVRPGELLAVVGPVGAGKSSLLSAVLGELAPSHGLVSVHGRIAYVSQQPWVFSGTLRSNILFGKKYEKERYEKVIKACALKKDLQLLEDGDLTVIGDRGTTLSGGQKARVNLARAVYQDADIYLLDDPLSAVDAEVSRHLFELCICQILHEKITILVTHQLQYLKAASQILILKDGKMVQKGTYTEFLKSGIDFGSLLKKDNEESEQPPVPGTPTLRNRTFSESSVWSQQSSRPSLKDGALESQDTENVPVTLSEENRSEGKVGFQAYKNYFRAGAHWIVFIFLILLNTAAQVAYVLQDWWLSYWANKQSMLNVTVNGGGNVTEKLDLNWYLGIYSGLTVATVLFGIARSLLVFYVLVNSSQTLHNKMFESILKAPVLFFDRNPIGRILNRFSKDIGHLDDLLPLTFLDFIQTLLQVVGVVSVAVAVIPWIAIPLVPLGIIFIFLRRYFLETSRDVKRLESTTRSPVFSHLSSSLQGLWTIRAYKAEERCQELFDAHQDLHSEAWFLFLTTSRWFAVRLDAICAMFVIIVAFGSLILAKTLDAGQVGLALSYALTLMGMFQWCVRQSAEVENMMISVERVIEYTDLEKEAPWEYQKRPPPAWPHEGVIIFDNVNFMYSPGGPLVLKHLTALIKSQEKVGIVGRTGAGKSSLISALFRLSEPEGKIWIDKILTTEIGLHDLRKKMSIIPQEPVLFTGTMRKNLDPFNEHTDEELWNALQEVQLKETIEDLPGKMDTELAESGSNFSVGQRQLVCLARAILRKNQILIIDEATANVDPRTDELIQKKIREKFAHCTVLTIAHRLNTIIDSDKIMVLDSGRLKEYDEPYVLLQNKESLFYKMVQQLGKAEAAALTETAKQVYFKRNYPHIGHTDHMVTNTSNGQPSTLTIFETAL
Assay: SPA assay of MRP4 transport activity (3H-folic acid uptake into membrane vesicles)
Format: biochemical
Conditions: inhibition of MRP4 transport of 3H-folic acid into membrane vesicles from baculovirus-infected insect cells; Protein A SPA beads, anti-MRP4 rabbit antiserum
Description: • 1) Membrane vesicles from insect cells (Hi5 or Sf9) infected with a baculovirus construct containing the full-length cDNA encoding MRP4 are prepared as described by van Aubel et al. (van Aubel et al., 2002) with some modifications: Hi5 cells are cultured in suspension to a cell density of 1×10^6 cells/ml in Insect-Xpress serum free insect cell medium and infected with baculovirus construct containing the full-length cDNA encoding MRP4. Three days after infection, cells are collected by centrifugation at 3000 rpm for 10 min. […] Protein concentration of the membrane preparation is determined using standard methods, e.g. the BCA protein assay (Pierce, product number 23250). • 2) Determination of transport activity of MRP4: Membrane vesicles prepared in 1) are diluted in Tris/sucrose buffer to a concentration of 3.3 μg protein/μl. […] Luminescence signals are measured with the LEADSeeker or TopCount system after 30 min, 1 h, 2 h, 4 h, or up to 24 h. • 3) Calculation of inhibitory effect of a test compound: The relative transport activities of MRP4 determined in the presence of a test compound is calculated as percentage of luminescence determined in the presence of the test compound compared to luminescence determined in the absence of the test compound.

IC50: 35 µM
SMILES: OCCN(CCO)c1nc(N2CCCCC2)c2nc(N(CCO)CCO)nc(N3CCCCC3)c2n1 [Dipyridamole]
